Test results from patent US20250214925A1, “CATIONIC LIPID, LIPOSOME, LIPID NANOPARTICLE, AND USE” (CARCELL BIOPHARMA LTD., priority 2022, published 2025).

Columns and labels:
mice [1] = experiment: In vivo delivery of Ffluc mRNA LNP in mice, intramuscular administration, luminescence relative to MC3; set-up: species or system mice (female Balb/C); settings: fold change in luminescence intensity relative to MC3; 50 μL of 0.1 mg/mL mRNA LNP into right thigh; 6 h after injection
Method: The prepared encapsulation solution was applied to mice in the following manner, and its delivery efficiency in mice was tested. Among them, DLin-MC3-DMA (MC3) was a cationic liposome for delivering small nucleic acids that was approved by the FDA for marketing in 2018, which has high nucleic acid drug delivery efficiency and biosafety, and was usually used as the industry gold standard in the screening process of cationic lipids. In the evaluation of mice experiments, the ratio of nucleic acid delivery efficiency normalized to MC3 was greater than 0.1, which was considered to be a cationic lipid with high delivery efficiency.
The LNP solution was diluted with 50 mM TBS, pH 7.4 to a concentration of 0.1 mg/mL mRNA.
2. The mice involved in this study were female Balb/C, weighing 18-22 g, 6-8 weeks old, with 5 mice in each group.
3. The dosing solution was kept at 4° C. prior to injection.
4. 50 μL of LNP solution was injected into the right thigh of the mice.
5. The mice were injected intraperitoneally with 200 μL of 1.5 mg/mL D-luciferin solution 6 h after injection.
6. The in vivo luminescence images of the mice were obtained using the IVIS system (Aniview).
7. The luminescence intensity of each mice was measured using Aniview software.
8. MC3 lipid nanoparticles were used as a positive control. The in vivo efficacy of each cationic lipid tested was recorded as the fold change in luminescence intensity relative to MC3 (ratio normalized to MC3).

[2] = LNP size and PDI by dynamic laser light scattering; assay type: physicochemical; settings: LNP: 50% cationic lipid, 38.5% cholesterol, 10% DSPC, 1.5% DMG-PEG2000; Ffluc mRNA
How it was run: (§1)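 LNPs of cationic lipid/cholesterol/DSPC/DMG-PEG2000 at 50/38.5/10/1.5 mol% in ethanol, mixed with Ffluc mRNA at 0.2 mg/mL in 10 mM pH 4.0 citrate via T-mixer at 40 mL/min. Dialyzed overnight against 50 mM Tris-buffered saline pH 7.4 and sieved; PDI by dynamic light scattering, encapsulation by Ribogreen.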

[3] = mRNA encapsulation efficiency of LNP by Ribogreen assay; assay type: physicochemical; settings: LNP: 50% cationic lipid, 38.5% cholesterol, 10% DSPC, 1.5% DMG-PEG2000; Ffluc mRNA
How it was run: as §1

mice [4] = experiment: In vivo delivery of Ffluc mRNA LNP in mice, intravenous administration, luminescence relative to MC3; set-up: species or system mice (female Balb/C); settings: fold change in luminescence intensity relative to MC3; 0.06 mg/kg tail vein; 6 h after injection
How it was run: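 Female Balb/C mice (18-22 g, 6-8 weeks, n=5) received Ffluc mRNA LNP at 0.06 mg/kg by tail vein in 50 mM TBS pH 7.4. Six hours later, intraperitoneal D-luciferin was given and whole-body luminescence imaged, with each lipid reported as fold change relative to MC3 LNP.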

| Molecule | In Vivo Efficacy Normalized To Mc3 In Mice (Intramuscular Injection) (mice [1]) | PDI [2] | Size (nm) [2] [nm] | Encapsulation Rate [3] [%] | In Vivo Efficacy Normalized To Mc3 In Mice (Intravenous Injection) (mice [4]) |
| --- | --- | --- | --- | --- | --- |
| CCCCCCCCCC/C(=C\C(=O)OCCCCN(CCCO)CCCCOC(=O)/C=C(/CCCCC)CCCCCCCCCC)CCCCC [CPL-026, ((3-hydroxypropyl)azanediyl)bis(butane-4,1-diyl) (2Z,2′Z)-bis(3-pentyltridec-2-enoate)] | 0.92 | 0.2143 | 71.34 | 95 | 2.51 |
| CCCCCCCCCC/C(=C/C(=O)OCCCCCCN(CCCO)CCCCCCOC(=O)/C=C(\CCC)CCCCCCCCCC)CCC [CPL-062-01, ((3-hydroxypropyl)azanediyl)bis(hexane-6,1-diyl) (2E,2′E)-bis(3-propyltridec-2-enoate)] | 1.06 | 0.0828 | 67.12 | 98 | 2.21 |
| CCCCCCCCCC/C(=C/C(=O)OCCCCCCN(CCCO)CCCCCCOC(=O)/C=C(\CCCC)CCCCCCCCCC)CCCC [CPL-066, ((3-hydroxypropyl)azanediyl)bis(hexane-6,1-diyl) (2E,2′E)-bis(3-butyl-2-tridecenoate)] | 4.04 | 0.19 | 87.2 | 98 | 1.95 |
| CCCCCCCC/C(=C/C(=O)OCCCCCCN(CCCO)CCCCCCOC(=O)/C=C(\CCCCC)CCCCCCCC)CCCCC [CPL-069-01, ((3-hydroxypropyl)azanediyl)bis(hexane-6,1-diyl) (2E,2′E)-bis(3-pentylundec-2-enoate)] | 1.72 | 0.126 | 84.59 | 97 | 2.70 |
| CCCCCCCCCC/C(=C\C(=O)OCCCCCCN(CCCO)CCCCCCOC(=O)/C=C(/CCCCC)CCCCCCCCCC)CCCCC [CPL-070, ((3-hydroxypropyl)azanediyl)bis(hexane-6,1-diyl) (2Z,2′Z)-bis(3-pentyltridec-2-enoate)] | 1.85 | 0.2173 | 100.4 | 95 | 3.74 |
| CCCCCCC(=CC(=O)OCCCCCCN(CCCO)CCCCCCOC(=O)C=C(CCCCCC)CCCCCC)CCCCCC [CPL-071, ((3-hydroxypropyl)azanediyl)bis(hexane-6,1-diyl) (2E,2′E)-bis(3-hexylnon-2-enoate)] | 7.81 | 0.1733 | 88.06 | 92 | 2.05 |
| CCCCCCC/C(=C/C(=O)OCCCCCCN(CCCO)CCCCCCOC(=O)/C=C(\CCCC)CCCCCCC)CCCC [CPL-074, ((3-hydroxypropyl)azanediyl)bis(hexane-6,1-diyl) (2E,2′E)-bis(3-butyldec-2-enoate)] | 7.93 | 0.3691 | 95.7 | 99 | 2.40 |
| CCCCCCCCCC/C(=C/C(=O)OCCCCCCN(CCCO)CCCCCCOC(=O)/C=C(\CCCCCCCC)CCCCCCCCCC)CCCCCCCC [CPL-079, ((3-hydroxypropyl)azanediyl)bis(hexane-6,1-diyl) (2E,2′E)-bis(3-octyltridec-2-enoate)] | 1.30 | 0.1557 | 94.46 | 94 | 4.95 |
| CCCCCCCCCC/C(=C/C(=O)OCCCCCCCN(CCCO)CCCCCCCOC(=O)/C=C(\CCCCC)CCCCCCCCCC)CCCCC [CPL-092-01, ((3-hydroxypropyl)azanediyl)di(heptane-7,1-diyl) (2E,2′E)-di(3-pentyltridec-2-enoate)] | 2.20 | 0.21 | 98.6 | 97 | 8.96 |
| CCCCCCC/C(=C/C(=O)OCCCCCCCN(CCCO)CCCCCCCOC(=O)/C=C(\CCCC)CCCCCCC)CCCC [CPL-096, ((3-hydroxypropyl)azanediyl)bis(heptane-7,1-diyl)(2E,2′E)-bis(3-butyldec-2-enoate)] | 2.59 | 0.1973 | 71.62 | 95 | 2.06 |
| CCCCCCCCCC/C(=C\C(=O)OCCCCCCCN(CCCO)CCCCCCCOC(=O)/C=C(/CCCCCCCC)CCCCCCCCCC)CCCCCCCC [CPL-101, ((3-hydroxypropyl)azanediyl)bis(heptane-7,1-diyl)(2Z,2′Z)-bis(3-octyltridec-2-enoate)] | 1.76 | 0.0791 | 69.38 | 95 | 2.90 |
| CCCCCCCC/C(=C/C(=O)OCCCCCCCCN(CCCO)CCCCCCCCOC(=O)/C=C(\CCCCC)CCCCCCCC)CCCCC [CPL-113-01, ((3-hydroxypropyl)azanediyl)bis(octane-8,1-diyl) (2E,2′E)-bis(3-pentylundec-2-enoate)] | 1.65 | 0.24 | 97.7 | 96 | 2.52 |
| CCCCCCCC/C(=C/C(=O)OCCCCCCCCCN(CCCO)CCCCCCCCCOC(=O)/C=C(\CCC)CCCCCCCC)CCC [CPL-127, ((3-hydroxypropyl)azanediyl)bis(nonane-9,1-diyl) (2E,2′E)-bis(3-propylundec-2-enoate)] | 2.37 | 0.0486 | 94.43 | 92 | 2.54 |
| CCCCC/C(=C/C(=O)OCCCCCCCCCN(CCCO)CCCCCCCCCOC(=O)/C=C(\CCCC)CCCCC)CCCC [CPL-133-01, ((3-hydroxypropyl)azanediyl)bis(nonane-9,1-diyl) (2E,2′E)-bis(3-butyloct-2-enoate)] | 6.61 | 0.0569 | 80.25 | 97 | 3.54 |
| CCCCCCCCCC/C(=C\C(=O)OCCCCCCCCCN(CCCO)CCCCCCCCCOC(=O)/C=C(\CCCCC)CCCCCCCCCC)CCCCC [CPL-136] | 1.61 | 0.2 | 92.9 | 98 | 2.81 |
| CCCCC/C=C\C/C=C\CCCCCCCC(=O)OCC(COC(=O)C=C(CCCCCCCCCC)CCCCCCCCCC)COC(=O)OCC1CCN(CC)CC1 (stereo not shown) [CPL-454, 3-((3-decyltridec-2-enoyl)oxy)-2-(((((1-ethylpiperidin-4-yl)methoxy)carbonyl)oxy)methyl)propyl(9Z,12Z)-octadeca-9,12-dienoate] | – | 0.1315 | 83.51 | 99 | 0.88 |
| CCCCCCCCCC/C(=C/C(=O)OCCCCCCCCCCN(CCCO)CCCCCOC(=O)/C=C(\CCCC)CCCCCCCCCC)CCC [CPL-1093, 10-(((5-(E)-3-butyltridec-2-enoyl)oxy)pentyl)((3-hydroxypropyl)amino)decyl(E)-3-propyl-2-tridecenoate] | – | 0.21 | 112.08 | 99 | 1.55 |
| ((3-hydroxypropyl)azanediyl)bis(butane-4,1-diyl) (2E,2′E)-bis(2-hexylidenedecanoate) [CPL-025] | – | 0.2 | 92.1 | 97 | 1.34 |
| ((3-hydroxypropyl)azanediyl)bis(butane-4,1-diyl)(2E,2′E)-bis(3-butylundec-2-enoate) [CPL-021] | – | 0.0729 | 69.64 | 95 | 0.75 |
